Results taken from patent US8288371B2, “Ortho pyrrolidine, benzyl-substituted heterocycle CCR1 antagonists for autoimmune diseases and inflammation” (Pharmacopeia, LLC, priority 2007, dated 2012).

These compounds were tested against T1, human CCR1 (Homo sapiens, UniProt P32246) (assay: CCR1 binding protocol (SPA, [125I]-MIP-1α displacement)). Conditions: cell membrane expressing human CCR1, 0.1 nM [125I]-MIP-1α, 4 hours at ambient temperature; read-out: Relative potency (IC50).
T1 sequence (P32246 1-355): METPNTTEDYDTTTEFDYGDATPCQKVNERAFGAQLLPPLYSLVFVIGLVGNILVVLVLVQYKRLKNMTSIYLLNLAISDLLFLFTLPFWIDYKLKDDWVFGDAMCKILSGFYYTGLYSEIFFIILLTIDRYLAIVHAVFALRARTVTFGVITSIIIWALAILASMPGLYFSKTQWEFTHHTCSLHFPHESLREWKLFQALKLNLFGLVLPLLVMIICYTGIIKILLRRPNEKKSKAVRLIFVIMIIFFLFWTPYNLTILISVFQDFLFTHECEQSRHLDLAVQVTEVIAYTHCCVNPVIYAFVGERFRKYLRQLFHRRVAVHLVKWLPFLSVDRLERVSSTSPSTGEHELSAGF
Summary of the method: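 Human CCR1 membranes (0.5 μg/well) on SPA beads were incubated with compound and 0.1 nM [125I]-MIP-1α (final) for 4 h at ambient temperature. Buffer was Tris pH 7.4 with NaCl, KCl, MnCl and 0.1% BSA. IC50 came from ½-log compound dilutions (10 mM top DMSO stock) by displacement of bound radioligand.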

| Structure (SMILES) | IC50 [nM] |
| --- | --- |
| Cc1cc(C)c(NC(=O)N2CCC[C@@H]2c2nnc(C)n2Cc2ccc(Cl)cc2)c(C(=O)O)c1 [Compound 254] | 500 to 5000 |
| CC[C@@H](NC(=O)N1CCC[C@@H]1c1nnc(C)n1Cc1ccc(Cl)cc1)c1ccccc1 [Compound 285] | < 50 |
| Cc1nnc([C@H]2CCCN2C(=O)Nc2cccc(-c3ccn(C)n3)c2)n1Cc1ccc(Cl)cc1 [Compound 621] | 50 to 500 |
| O=C(Nc1ccc(OC(F)(F)F)cc1)N1CCC[C@@H]1c1nccn1Cc1ccc(Cl)cc1 [Compound 39] | 50 to 500 |
| O=C(Nc1ccc2occc2c1)N1CCC[C@@H]1c1ncnn1Cc1ccc(Cl)cc1 [Compound 91] | 50 to 500 |
| CC[C@H](NC(=O)N1CCC[C@@H]1c1nnc(C)n1Cc1ccc(Cl)cc1)c1c(C)cc(C(F)(F)F)cc1C [Compound 119] | < 50 |
| Cc1nc(C(F)(F)F)ccc1NC(=S)N1CCC[C@@H]1c1nnc(C)n1Cc1ccc(Cl)cc1 [Compound 607] | < 50 |
| Cc1nnc([C@H]2CCCN2C(=O)Nc2cc(C(=O)N(C)C)ccc2Cl)n1Cc1ccc(Cl)cc1 [Compound 347] | < 50 |
| Cc1nnc([C@H]2CCCN2C(=O)C(C)c2cc(C(F)(F)F)ccc2Cl)n1Cc1ccc(Cl)cc1 (some centres unmarked) [Compound 533] | 50 to 500 |
| Cc1nc(Cl)ccc1NC(=O)N1CCC[C@@H]1c1nnc(C)n1Cc1ccc(Cl)cc1 [Compound 398] | < 50 |
| Cc1onc(-c2ccccc2)c1NC(=O)N1CCC[C@@H]1c1nccn1Cc1ccc(Cl)cc1 [Compound 35] | < 50 |
| Cc1nnc([C@H]2CCCN2C(=O)Nc2c(F)cc(Cl)cc2F)n1Cc1ccc(Cl)cc1 [Compound 429] | < 50 |
| Cc1noc(-c2ccccc2)c1NC(=O)N1CCC[C@@H]1c1nnc(C(F)(F)F)n1Cc1ccc(Cl)cc1 [Compound 226] | 50 to 500 |
| Cc1ncc(Cc2ccc(Cl)cc2)c([C@H]2CCCN2C(=O)Nc2c(C)cc(C(F)(F)F)cc2C)n1 [Compound 16] | 50 to 500 |
| Cc1nnc([C@H]2CCCN2C(=O)Nc2ccc(Cl)c(C(F)(F)F)c2)n1Cc1ccc(Cl)cc1 [Compound 441] | 50 to 500 |
| Cc1nnc([C@H]2CCCN2C(=O)Cc2cc(F)cc(C(F)(F)F)c2)n1Cc1ccc(Cl)cc1 [Compound 509] | 50 to 500 |
| CC[C@H](NC(=O)N1CCC[C@@H]1c1ncnn1Cc1ccc(Cl)cc1)c1c(C)cc(C(F)(F)F)cc1C [Compound 90] | 50 to 500 |
| Cc1cc(Cl)cc(C)c1NC(=O)N1CCC[C@@H]1c1ncncc1Cc1ccc(Cl)cc1 [Compound 13] | < 50 |
| Cc1nnc([C@H]2CCCN2/C(=N/C#N)Nc2ccc(Cl)cc2F)n1Cc1ccc(Cl)cc1 [Compound 529] | 50 to 500 |
| Cc1nnc([C@H]2CCCN2C(=O)Nc2cccc(S(N)(=O)=O)c2)n1Cc1ccc(Cl)cc1 [Compound 354] | 500 to 5000 |
| COC(=O)c1cc(C)ccc1NC(=O)N1CCC[C@@H]1c1nnc(C)n1Cc1ccc(Cl)cc1 [Compound 248] | 500 to 5000 |

| Structure (SMILES) | IC50 [nM] |
| --- | --- |
| Cc1noc(-c2ccccc2)c1NC(=O)N1CCC[C@@H]1c1ncncc1Cc1ccc(Cl)cc1 [Compound 14] | < 50 |
| CNC(=O)c1ccc(Cl)c(NC(=O)N2CCC[C@@H]2c2nnc(C)n2Cc2ccc(Cl)cc2)c1 [Compound 315] | 50 to 500 |
| Cc1nc(C(F)(F)F)ccc1NC(=O)N1CC=C[C@@H]1c1nnc(C)n1Cc1ccc(Cl)cc1 [Compound 636] | < 50 |
| Cc1nnc([C@H]2CCCN2C(=O)Nc2ccc(Cl)cc2Cl)n1Cc1ccc(Cl)cc1 [Compound 421] | 50 to 500 |
| CSc1ccc(NC(=O)N2CCC[C@@H]2c2ncnn2Cc2ccc(Cl)cc2)cc1 [Compound 67] | 50 to 500 |
| Cc1ccc(C(N)=O)cc1NC(=O)N1CCC[C@@H]1c1nnc(C)n1Cc1ccc(Cl)cc1 [Compound 229] | 50 to 500 |
| Cc1nnc([C@H]2C[C@@H](O)CN2C(=O)Nc2ccc(F)c(C(F)(F)F)c2)n1Cc1ccc(Cl)cc1 [Compound 449] | 500 to 5000 |
| CCc1nnc([C@H]2CCCN2C(=O)Nc2c(C)noc2-c2ccccc2)n1Cc1ccc(Cl)cc1 [Compound 203] | < 50 |
| Cc1nnc([C@H]2CCCN2/C(=N\C#N)N[C@H]2CCOc3cc(C#N)ccc32)n1Cc1ccc(Cl)cc1 [Compound 345] | 50 to 500 |
| CC[C@H](N/C(=C/[N+](=O)[O-])N1CCC[C@@H]1c1nnc(C)n1Cc1ccc(Cl)cc1)c1ccc(C(F)(F)F)nc1 [Compound 614] | < 50 |
| Cc1nnc([C@H]2CCCN2C(=O)Nc2ccc(Br)cc2)n1Cc1ccc(Cl)cc1 [Compound 162] | 50 to 500 |
| COCc1nnc([C@H]2CCCN2C(=O)Nc2ccc(Cl)cc2F)n1Cc1ccc(Cl)cc1 [Compound 465] | 500 to 5000 |
| CC[C@H](NC(=O)N1CCC[C@@H]1c1nnc(C)n1Cc1ccc(F)cc1)c1ccc(C(F)(F)F)cc1 [Compound 577] | < 50 |
| N#Cc1ccc2c(c1)OCC[C@H]2NC(=O)N1CCC[C@@H]1c1nnc(CO)n1Cc1ccc(Cl)cc1 [Compound 340] | < 50 |
| Cc1nnc([C@H]2C[C@@H](O)CN2C(=O)Cc2cccc(C(F)(F)F)c2)n1Cc1ccc(Cl)cc1 [Compound 502] | 50 to 500 |
| Cc1nnc([C@H]2CCCN2/C(=C/[N+](=O)[O-])Nc2ccc(Cl)cc2F)n1Cc1ccc(Cl)cc1 [Compound 613] | 50 to 500 |
| Cc1nnc([C@H]2CCCN2C(=O)N[C@@H](C)c2ccc(Cl)cc2)n1Cc1ccc(Cl)cc1 [Compound 170] | < 50 |
| CC[C@H](N/C(=N/C#N)N1CCC[C@@H]1c1nnc(C)n1Cc1ccc(Cl)cc1)c1cc2ccccc2o1 [Compound 196] | < 50 |
| CNC(=O)c1ccc(C)c(N/C(=N/C#N)N2CCC[C@@H]2c2nnc(C)n2Cc2ccc(Cl)cc2)c1 [Compound 360] | 50 to 500 |
| Cc1nnc([C@H]2CCCN2C(=O)NC2(c3cccc(C(F)(F)F)c3)CC2)n1Cc1ccc(Cl)cc1 [Compound 265] | < 50 |
